No end group written: not given here.
Legend:
[1] = target: T1, DPP9 (Homo sapiens, UniProt Q86TI2); assay: Inhibition of GP-AMC hydrolysis by purified recombinant DPP9 at a single peptide concentration; type: biochemical; conditions: 25 nM DPP9, 0.2 mM GP-AMC, 10 μM peptide; DPP9 alone = 100.3
T1 construct: made in house; host or cells: Sf9 insect cells (baculovirus)
Method: Accordingly, the peptide is capable of inhibiting the activity of wild-type DPP9 (SEQ ID NO: 6) to a level of 35 to 5% of the activity of wild-type DPP9 (SEQ ID NO: 6) if not inhibited, as determined in an assay using 25 nM purified DPP9, 0.2 mM GP-AMC, and 14 μM of the peptide to be tested, in TB buffer (20 mM Hepes/KOH pH 7.3, 110 mM potassium acetate, 2 mM Mg acetate, 0.5 mM EGTA), supplemented with 0.2% Tween-20, 1 mM dithiothreitol. Release of AMC from GP-AMC is measured using the Appliskan microplate fluorimeter (Thermo Scientific) with 380 nm (excitation) and 480 nm (emission) filters and the Skanit software, and analysed using the Prism software.
(§1) Kinetics assays: Purified recombinant DPP9 (25 nM) was incubated with varying concentrations of GP-AMC, in TB supplemented with 0.2% Tween-20, 1 mM ditiothreitol. For inhibition assays, inhibitory peptides were added directly to the reaction mixture. For activation by SUMO 0.2 mg/ml BSA, was added to the buffer to prevent non specific binding. DPP9 were incubated with 2.5 μM of either SUMO1, SUMO1 E67A, SUMO2 for 2 hour on ice prior to the assay. Alternatively DPP9 was incubated with 1 μM of RanGAP or RanGAP modified with either SUMO1 or SUMO2 for 2 hours prior to the assay. Fluorescence was measured using the Appliskan microplate fluorimeter (Thermo Scientific) with 380 nm (excitation) and 480 nm (emission) filters and the Skanit software, and analysed using the Prism software. Each experiment was performed at least three times, in replicates of four.
To improve the inhibition of DPP9, the inventors tested several peptide libraries composed of truncated variants of the EIL peptide (>80% pure, ordered from Genescript). These peptides were incubated with recombinant DPP9 and analysed GP-AMC hydrolysis. AMC release was then compared to samples containing either DPP9 alone, or the EIL peptide.

[2] = target: DPPIV (Homo sapiens, UniProt P27487); assay: GP-AMC hydrolysis by DPPIV in the presence of peptide; type: biochemical; conditions: concentrations measured up to 50 μM
Sequence of DPPIV (P27487 whole entry): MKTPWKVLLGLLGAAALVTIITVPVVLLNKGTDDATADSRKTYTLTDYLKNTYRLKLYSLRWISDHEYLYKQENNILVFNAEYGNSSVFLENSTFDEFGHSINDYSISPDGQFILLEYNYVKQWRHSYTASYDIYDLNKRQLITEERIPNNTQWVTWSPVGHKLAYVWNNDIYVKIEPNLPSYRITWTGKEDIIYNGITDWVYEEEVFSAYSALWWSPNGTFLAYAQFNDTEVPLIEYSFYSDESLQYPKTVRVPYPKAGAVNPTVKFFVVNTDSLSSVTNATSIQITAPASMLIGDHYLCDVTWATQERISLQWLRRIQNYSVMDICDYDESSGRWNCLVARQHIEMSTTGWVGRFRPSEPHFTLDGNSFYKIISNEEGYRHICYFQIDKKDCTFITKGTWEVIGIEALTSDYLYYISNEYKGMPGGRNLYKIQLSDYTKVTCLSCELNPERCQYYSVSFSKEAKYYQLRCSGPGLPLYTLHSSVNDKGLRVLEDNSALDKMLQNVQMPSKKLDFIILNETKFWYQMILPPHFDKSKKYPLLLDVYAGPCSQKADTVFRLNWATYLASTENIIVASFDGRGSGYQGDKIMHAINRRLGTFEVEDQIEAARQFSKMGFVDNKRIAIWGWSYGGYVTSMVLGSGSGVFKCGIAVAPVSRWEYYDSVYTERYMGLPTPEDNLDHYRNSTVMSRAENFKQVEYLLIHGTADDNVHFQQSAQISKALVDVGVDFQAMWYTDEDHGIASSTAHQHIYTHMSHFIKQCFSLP
Method: Preferably, the peptide is capable of inhibiting the activity by wild-type DPP9 (SEQ ID NO: 6) to a level of 30 to 5%, 29 to 5%, 28 to 5%, 27 to 5%, 26 to 5%, 25 to 5%, 24 to 5%, 23 to 5%, 22 to 5%, 21 to 5%, 20 to 5%, 19 to 5%, 18 to 5%, 17 to 5%, 16 to 5%, 15 to 5%, 14 to 5%, 13 to 5%, 12 to 5%, 11 to 5%, 10 to 5%, 9 to 5%, 8 to 5%, such as 7.5 to 5% of the activity of wild-type DPP9 (SEQ ID NO: 6) if not inhibited. […] Release of AMC from GP-AMC is measured using the Appliskan microplate fluorimeter (Thermo Scientific) with 380 nm (excitation) and 480 nm (emission) filters and the Skanit software, and analysed using the Prism software.
(§2) A&B 25 nM purified recombinant (A) DPP9 or (B) DPP8 were incubated with varying concentrations of the EIL peptide (0, 3.3 μM and 6.6 μM) and tested for hydrolysis of GP-AMC (1000, 500, 250, 125, 0 μM). C. 25 nM DPPIV was tested for the hydrolysis of GP-AMC (500, 250, 125, 0 μM) in the presence of 0 or 13 μM EIL peptide. Fluorescence was measured using the Appliskan microplate fluorimeter (Thermo Scientific) with 380 nm (excitation) and 480 nm (emission) filters and the Skanit software, and analysed using the Prism software. Each experiment was performed at least three times, in replicates of four.

[3] = target: T1, DPP9; assay: Kinetics assay, Ki for inhibition of DPP9 (GP-AMC hydrolysis); type: biochemical
Method: (§3) Enzyme kinetics and the Ki of DPP8 or DPP9 may be determined as follows: 25 nM purified recombinant enzyme (DPP9 or DPP8) are incubated with varying concentrations of GP-AMC ([…] GP-AMC), in TB buffer (20 mM Hepes/KOH pH 7.3, 110 mM potassium acetate, 2 mM Mg acetate, 0.5 mM EGTA), supplemented with 0.2% Tween-20, 1 mM dithiothreitol. Experiments are performed in triplicates. To measure Ki values, for each set of experiments, inhibitory peptides are added to DPP9 or DPP8. Peptide concentrations tested are in the range between 0.04 to 50 μM. Release of AMC from GP-AMC is measured using the Appliskan microplate fluorimeter (Thermo Scientific) with 380 nm (excitation) and 480 nm (emission) filters and the Skanit software, and analysed using the Prism software.
as §2, §1

[4] = target: T2, DPP8 (Homo sapiens, UniProt Q6V1X1); assay: Kinetics assay, Ki for inhibition of DPP8 (GP-AMC hydrolysis); type: biochemical
T2 construct: made in house; host or cells: Sf9 insect cells (baculovirus)
T2 sequence (Q6V1X1 whole entry): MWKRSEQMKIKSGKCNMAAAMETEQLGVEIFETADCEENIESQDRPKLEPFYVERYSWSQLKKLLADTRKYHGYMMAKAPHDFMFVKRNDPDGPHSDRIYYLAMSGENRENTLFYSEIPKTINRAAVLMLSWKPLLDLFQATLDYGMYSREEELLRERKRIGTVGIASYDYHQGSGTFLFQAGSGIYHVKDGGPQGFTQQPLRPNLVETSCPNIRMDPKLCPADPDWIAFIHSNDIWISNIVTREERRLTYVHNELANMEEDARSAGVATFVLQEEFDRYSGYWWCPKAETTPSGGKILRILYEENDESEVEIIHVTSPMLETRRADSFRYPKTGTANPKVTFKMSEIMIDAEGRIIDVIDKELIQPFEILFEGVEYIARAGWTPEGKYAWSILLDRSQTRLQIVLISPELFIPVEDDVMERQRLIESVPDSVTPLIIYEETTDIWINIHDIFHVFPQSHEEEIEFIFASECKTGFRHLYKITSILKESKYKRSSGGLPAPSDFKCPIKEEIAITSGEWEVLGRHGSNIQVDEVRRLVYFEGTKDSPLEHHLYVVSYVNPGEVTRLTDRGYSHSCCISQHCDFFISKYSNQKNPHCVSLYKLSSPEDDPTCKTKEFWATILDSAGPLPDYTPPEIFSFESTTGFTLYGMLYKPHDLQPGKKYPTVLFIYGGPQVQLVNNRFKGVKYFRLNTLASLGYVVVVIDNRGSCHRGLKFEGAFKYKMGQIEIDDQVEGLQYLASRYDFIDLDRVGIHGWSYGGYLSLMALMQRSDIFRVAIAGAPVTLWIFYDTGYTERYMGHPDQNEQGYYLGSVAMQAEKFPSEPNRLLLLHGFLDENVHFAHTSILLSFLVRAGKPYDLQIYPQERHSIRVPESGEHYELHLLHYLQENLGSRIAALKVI
Method: as §3, §2

[5] = system: HeLa cells; assay: MTT proliferation assay of HeLa cells expressing the peptide; type: cell-based, human; conditions: Ubiquitin-SLRFLYEG-YFP construct, 32 hours after transfection, vs control plasmid or mock
Method: To test whether DPP8/9 inhibition effects cell viability, the inventors performed MTT (3-4,5-dimethylthiazol-2-yl)-2,5-diphenyltetrazolium bromide) based assays, which are widely used to measure cell proliferation and growth (e.g. in clinical settings for testing tumor sensitivity to chemotherapeutic agents). This assay involves the conversion of the water soluble MTT to an insoluble formazan. The formazan is then solubilized in 0.1N HCl. Absorbance is then determined at 570 nm. For a prolonged exposure of cells to the allosteric DPP8/9 inhibitor […] (SEQ ID NO: 38), the inventors cloned the peptide into a mammalian expression vector pEYFP-N1 from Clontech. The peptide inhibitor contains a serine at its amino-termini. Thus, to avoid expression of the peptide with a methionine residue at its amino terminus, it was cloned in frame with ubiquitin. Once expressed in cells, the ubiquitin moiety is cleaved by ubiquitin isopeptidases to release the […]-YFP (SEQ ID NO: 38) construct. A control construct was included that lacked the […] (SEQ ID NO: 38) peptide (Ubiquitin-YFP). […] 32 hours after transfection, cells were analyzed via a standard MTT assay.
Briefly, cell media was removed and replaced by 0.5 mg/ml of MTT reagent. […] Absorbance was measured with a microplate fluorimeter. […]

[6] = system: HeLa cells; assay: Cytosolic prolyl peptidase activity of HeLa cells treated with peptide alone or with Pep-1; type: cell-based, human; conditions: 5 μM peptide, 30 min, also in the absence of carrier peptide Pep-1
Method: In another experiment, HeLa cells were treated for 30 minutes with either 5 μM […] (SEQ ID NO: 38) alone or in complex with the carier peptide Pep-1. Cells were then typsinized and cytosolic extracts were prepared and tested for cleavage of the model substrate GP-AMC. Upper panel: […] (SEQ ID NO: 38) was allowed to form a complex with carrier peptide Pep-1 at a molar ratio of 1:10 (cargo:carrier) in FCS free DMEM for 30 min at 37° C. Lower panel: As a comparison, the inhibitory peptide […] was used also in the absence of carrier peptide, at the same concentration. For control, the solvent DMSO was used. These mixtures were overlaid onto HeLa cells allowing the entry for 30 minutes at 37° C. Cells were then trypsinized and lysed in TB buffer containing 0.2% Tween. After ultracentrifugation, the cytosolic extract were probed for DPP activity using […] of the fluorogenic substrate GP-AMC. Each experiment was performed in triplicates.

[7] = target: T3, SUMO1-DPP9 interaction (Homo sapiens, UniProt P63165); assay: ELISA: competition of SUMO1 binding to immobilized DPP9; conditions: SUMO1 pre-incubated with varying concentrations of peptide
T3 construct: made in house; DPP9: Sf9 insect cells
T3 sequence (P63165 2-97 limits assumed): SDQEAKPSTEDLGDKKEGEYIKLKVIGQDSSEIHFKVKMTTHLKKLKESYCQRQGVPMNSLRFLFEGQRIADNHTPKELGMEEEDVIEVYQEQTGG
Method: A. HA-tagged DPP9 mutants (DPP9V285A, DPP9V287A, DPP9I288A and DPP9V290) were expressed in HEK293T cells and purified using anti-HA beads agarose. Purified DPP9 proteins (input) were then incubated with SUMO1-immobilized beads. Bound DPP9 was eluted and analysed by western blotting using anti HA antibodies. B. Alignment of the amino-acid sequences corresponding to the ‘arms’ of DPP9 (SEQ ID NO: 3), DPP8 (SEQ ID NO: 4) and DPPIV (SEQ ID NO: 5). C A homology model of DPP9 (published by (Park et al., 2008)), shown from the ‘back’ side and the ‘front’ (180° rotation) side, which also reveal the so-called side opening. Color code: the hydrolase domain is dark grey, the eight-bladed propeller is light grey and the extended SUMO-binding-arm is indicated. D. Results of an ELISA assay. […] The SUMO1-peptide mix was then added to immobilized DPP9, and interacting SUMO1 was quantified using SUMO1-specific antibodies.
ELISA: A 96 well plate (Immuno 96 MicroWell™ Solid Plates, Nunc) was coated with 600 ng purified recombinant proteins per well in 100 μl TB, overnight at 4° C. […] Interacting proteins were detected using specific antibodies diluted in ELISA buffer: goat anti DPP9 antibody or anti GMP antibody (SUMO1). […] Absorbance was measured at 420 nm on an Appliskan microplate fluorimeter (Thermo Scientific) and the Skanit software. […]

[8] = system: HEK293 cells; assay: Cytosolic prolyl peptidase activity of HEK293 cells treated with peptide plus carrier Peptide 1; type: cell-based, human; conditions: 5 μM peptide with 100 μM Peptide 1, 30 min, 5 μg extract, 500 μM GP-AMC
Method: Cells were incubated for 30 minutes with 0 μM, 5 μM or 10 μM […] (SEQ ID NO: 40) and 100 μM carrier pep-1. Cytosolic extracts of cells (5 μg) were then tested for hydrolysis of 0.5 mM GP-AMC.
The inventors tested whether the inhibitory peptides can be inserted into cells. For this purpose the inventors established a method using a well characterized carrier peptide: Peptide 1 ([…]; SEQ ID NO: 48), in combination with […] (SEQ ID NO: 40). To test for effective inhibition, the inventors measured for hydrolysis of an artificial DPP8 and DPP9 substrate: GP-AMC, specifically in cytosolic extracts. For this, 5 μM or 10 μM of […] (SEQ ID NO: 40) were incubated with 100 μM Peptide 1, at 37° C. for 30 minutes, in […] DMEM without FCS, supplemented with glutamine and antibiotics. Once a complex was formed between the […] (SEQ ID NO: 40) and peptide 1, it was added to HEK293 cells (human embryonic kidney cells), grown in 24 well plates (50% confluence), and incubated for 30 minutes at 37° C. Cells were then trypsinized and washed twice with PBS buffer. Cell pellet was shock frozen in liquid nitrogen. […] Fluorescence was measured using the Appliskan microplate fluorimeter (Thermo Scientific) with 380 nm (excitation) and 480 nm (emission) filters and the Skanit software, and analysed using the Prism software.

T1 sequence (Q86TI2 1-892 isoform Q86TI2-2): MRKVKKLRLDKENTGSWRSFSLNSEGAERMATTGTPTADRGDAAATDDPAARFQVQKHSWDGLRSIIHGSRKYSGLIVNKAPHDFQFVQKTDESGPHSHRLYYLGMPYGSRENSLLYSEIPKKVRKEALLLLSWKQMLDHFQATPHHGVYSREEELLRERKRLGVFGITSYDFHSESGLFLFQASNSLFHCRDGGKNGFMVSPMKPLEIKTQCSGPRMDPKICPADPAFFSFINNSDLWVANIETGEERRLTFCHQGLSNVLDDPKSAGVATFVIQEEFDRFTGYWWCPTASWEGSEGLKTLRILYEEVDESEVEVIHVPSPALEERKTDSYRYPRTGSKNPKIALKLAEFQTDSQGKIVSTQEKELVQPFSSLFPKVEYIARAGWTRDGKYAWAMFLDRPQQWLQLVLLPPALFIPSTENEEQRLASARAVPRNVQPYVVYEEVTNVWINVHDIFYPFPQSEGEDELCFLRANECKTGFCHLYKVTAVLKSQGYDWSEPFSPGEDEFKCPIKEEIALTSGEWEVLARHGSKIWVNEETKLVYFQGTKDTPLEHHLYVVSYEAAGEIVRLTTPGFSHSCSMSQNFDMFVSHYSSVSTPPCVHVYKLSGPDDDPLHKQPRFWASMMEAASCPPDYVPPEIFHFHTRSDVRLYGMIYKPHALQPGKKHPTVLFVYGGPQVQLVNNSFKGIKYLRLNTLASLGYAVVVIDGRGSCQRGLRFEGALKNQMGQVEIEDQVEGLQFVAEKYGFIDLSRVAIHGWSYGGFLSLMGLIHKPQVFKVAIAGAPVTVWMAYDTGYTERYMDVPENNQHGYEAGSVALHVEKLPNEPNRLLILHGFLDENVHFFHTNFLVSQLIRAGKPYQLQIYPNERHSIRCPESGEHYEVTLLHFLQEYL

H-SLRFLYEG
% DPP9 activity (Mean) [1]: 10.92%
inhibitory effect towards DPPIV [2]: no inhibitory effect
fold increased efficiency compared to the EIL peptide (Ki DPP9) [3]: 18.5 fold
Ki ([3]; read-out: Ki for DPP9): 400 nM
Ki [4]: 3600 nM
fold lower affinity for DPP8 compared to DPP9 [4]: 9 fold
reduction in cell proliferation [5]: at least 50%
cytosolic prolyl peptidase activity after exposure of cells [6]: inhibits cytosolic prolyl peptidase activity

VEVIHVPSPALEERKTDSYR (listed as Homo sapiens) [DPP9-arm peptide, peptide corresponding to the extended arm of DPP9 (285-304)]
competition with DPP9 for binding to SUMO1 [7]: competed with DPP9 for binding to SUMO1 in a concentration dependent manner

SLRFLYAG
inhibition of cytosolic prolyl peptidase activity [8]: ~30%

From US9593148B2, “DPP8 and DPP9 peptide inhibitors” (GEORG-AUGUST-UNIVERSITAT GOTTINGEN STIFTUNG OFFENTLICHEN …, priority 2012, dated 2017)
